The test system of one assay is hepatitis-C. As to the kind of experiment: Free ATRA (oral) in a patient positive for hepatitis-C (Example 2).
The subject of the next assay is hepatitis-A. As to the kind of experiment: Free ATRA (oral) in a patient positive for hepatitis-A (Example 3).
Setting [1] is: blood, one month subsequent to the 3-week point.
[2] abbreviates: four months after beginning use of ATRA.
The mark [3] stands for this setting: one month subsequent to the 3-week point.

On to `CC1=C(/C=C/C(C)=C/C=C/C(C)=C/C(=O)O)C(C)(C)CCC1` [free ATRA, all-trans retinoic acid], for which the viral load is on record as < 11000 copies/ml in the assay on hepatitis-C (setting [1]) and < 1,000 copies/ml in the assay on hepatitis-A (setting [1]). In addition, the PCR status result with hepatitis-C (setting [2]) and with hepatitis-A (setting [2]) was “negative” throughout. The “blood chemistry as to hepatitis C (SPGT and SGOT, bilirubin, alkaline phosphatase)” value in the assay on hepatitis-C (setting [3]) is recorded as “normal”. Further, the “blood chemistry as to hepatitis A (SPGT and SGOT, bilirubin, alkaline phosphatase)” value with hepatitis-A (setting [3]) is given as “normal”.

Values taken from US20040127566A1, “Retinoid hepatitis therapy” (priority 2004, published 2004).
